The values that follow come from patent US10265299B2, “Composition for promoting hair growth and/or hair restoration containing psoralidin” (Amorepacific Corporation, priority 2015, dated 2019).

Experiment [1] relates to NIH3T3 (WNT) cells. The experiment in a line: Measurement of hair follicle stem cell activity (WNT/β-catenin luciferase assay). In kind it is cell-based. Conditions: psoralidin 0, 0.01, 0.1, 1, 10 μM for 24 hours; ONE-Glo reagent. Here is the method:
NIH3T3 (WNT) cells, which are hair follicle stem cells, were seeded in a 96 well plates (Nunc, Wiesbaden, Germany) at a density of 10000 cells/well and cultured for 24 hours (5% CO2, 37° C.). Then, psoralidin was treated at varying concentrations (0, 0.01, 0.1, 1, 10 μM) for 24 hours. 100 μl of ONE-Glo reagent (Promega, Madison, Wis., USA) was added to each well of the 96-well plate and reacted for 3 minutes . After the reaction, the activity of stem eel Is was measured with a luminometer Victor (PerkinElmer, Waltham, Mass., USA).

For experiment [2], the system named is androgen-independent prostate cancer cells. Conditions: in vitro and in vivo; cited from earlier work.
For experiment [3], the system named is protein kinase Akt. The settings on record: cited from earlier work.
In experiment [4] the test system is hair follicle. The experiment in a line: Culture of hair follicle organ and observation of hair follicle cycle. In kind it is cell-based. Conditions: psoralidin 1, 10 μM vs samples without psoralidin treatment; human hair follicle organ culture. Here is the method: For the experiment, a hair transplant was performed to a person with a symptom of partial hair loss. Hair follicle samples of 4 groups each having 15 hair follicles were prepared with remaining follicle samples. William's E medium (Gibco, NY, USA) ) including 500 μl culture medium (2 mM L-glutamine (PAA, Coelbe, Germany), 10 μg/ml insulin, 10 ng/ml hydrocortisone (Sigma, St Louis, Mo.), 0.1% Fungizone (Gibco, NY, USA), 10 μg/ml streptomycin, and 100 U/ml penicillin (Gibco, NY, USA) was dispensed into a 24 well plate (Nunc, Wiesbaden, Germany). Then, the cells were cultured at a density of 5 to 6 cells per well on 500 ul of William's E medium (Gibco, NY, USA).
The cultured cell samples were treated with psoralidin at varying concentrations (0, 1, 10 μM). A sample not treated with psoralidin was used as a control and the medium was changed every 2 to 3 days. After the treatment with psoralidin, the hair follicle was photographed using a stereomicroscope (Dongwon CNS, Korea), and the life cycle of Image hair follicle was classified and schematized.

Experiment [5] relates to CRH (Corticotropin-releasing hormone) and corticosterone. Conditions: fed to animals; cited from earlier work.

The structures appear in SMILES notation.

As to `CC(C)=CCc1cc2c(cc1O)oc(=O)c1c3ccc(O)cc3oc21` [psoralidin], in experiment [1], the “activity of hair follicle stem cells (luminescence, WNT/β-catenin luciferase)” value is listed as “activated”. Moreover, in experiment [2], the “growth of androgen-independent prostate cancer cells” value is “inhibiting the growth of androgen-independent prostate cancer cells both in vitro and in vivo”. The “phosphorylation of protein kinase Akt” value in experiment [3] is recorded as “inhibits the phosphorylation of protein kinase Akt”. In experiment [4], the “speed of the progression to the catagen stage” value is recorded as “significantly delayed” and the “time remaining in the anagen stage of the hair follicle cycle” value was “remained longer in the anagen stage”. In addition, the “levels of stress hormones CRH and corticosterone” value in experiment [5] was “lower the levels of hormones of CRH (Corticotropin-releasing hormone) and corticosterone”.
